Test results from US20250034264A1, “REGULATING T CELL IMMUNE RESPONSE THROUGH IGF-I RECEPTOR (IGF-1R)” (The Regents of the University of Michigan, priority 2021, published 2025).

What was measured:
fibrocytes [1] = experiment: mRNA stability with DRB; assay type: cell-based, human; settings: 50 μg/mL, up to 12 hrs
Protocol: FIGS. 5A-5C show the effects of teprotumumab on basal and bTSH-induced gene promoter activities in GD-OF compared to fibrocytes, gene transcription and mRNA stabilities of MHC II, CD80, CD86, PD-L1 in fibrocytes. Confluent GD-OF and fibrocyte monolayers were treated with human Isotype IgG (5 μg/ml) or teprotumumab (50 μg/mL) for 3 d and transfected with a target gene promoter fragment (MHC-2, CD80, CD86, PD-L1, or negative control clone PG04). Following a 3-4 d incubation, they were treated without or with bTSH (5 mU/mL) for 2 h. Monolayers were rinsed, processed, and analyzed using the Secrete-Pair Dual Luminescence Assay Kit for promoter activity according to manufacturer's instructions (FIG. 5A). Values were normalized to internal controls. Fibrocyte monolayers were cross-linked with 16% formaldehyde isolated chromatin fragment and immunoprecipitated with anti-human HLA-DPB1, anti-CD80, anti-CD86, or anti-PD-L1 using the Pierce™ Agarose Chip Kit. Isolated DNA was subjected to RT-PCR using EpiTect ChIP qPCR Primer Assay (Qiagen) for each target (FIG. 5B). Each datum point represents values from three independent determinations from one of three experiments performed. *, p<0.05; ** p<0.01; and ***p<0.001. Fibrocyte cultures were pretreated with bTSH for 6 h. […] RNA was extracted, reverse transcribed, and subjected to real-time quantitative PCR for each target (FIG. 5C). […]

[2] = test system: circulating CD3+CD4+ T cells; experiment: Phase 2 TAO trial: INFγ and IL-17A in circulating T cells (flow cytometry); assay type: in vivo, human; settings: TAO patients, 20 mg/Kg, 24-week treatment
Protocol: Studies of circulating CD34^+ fibrocytes and T cells PBMCs from patients with active, moderate to severe TAO enrolled in a phase 2 trial for teprotumumab were cryopreserved immediately after collection. Venous blood sampling occurred at baseline and at week 24, following 8 infusions at 3 weekly intervals. The post-treatment sample was obtained 3 weeks after the final infusion of active drug or placebo. Samples were thawed and incubated with 10% knockout serum replacement medium for 1h and stained. Rinsed samples were subjected to FACS analysis with a Calibur flow cytometer (BD). Viable cells were gated on the basis of forward light scatter. All samples were analyzed using quadrant settings based on negative staining with isotype control antibodies. Mean fluorescent intensity (MFI) was calculated as the ratio of mean sample to isotype control fluorescence. Data were analyzed with FCS Express software (De Novo Software, Ontario, CA).

GD-OF [3] = experiment: icIL-1RA and sIL-1RA protein (ELISA); assay type: cell-based, human
Protocol: FIGS. 11A-11F are graphs showing teprotumumab attenuates bTSH induced IL-10 while enhancing icIL-1RA and sIL-1RA expression in fibrocytes and GD-OF. Fibrocyte cultures were treated with teprotumumab (50 μg/ml), rhSlit2 (50 ng/ml) or human Isotype IgG for 7-9 d, with bTSH (5 mIU/mL) for final 6 h. RNA was extracted and reverse transcribed. Isolated cDNA was subjected to quantitative real-time PCR for IL-10 (FIGS. 11A and 11B), icIL-1RA (FIGS. 11C and 11D). Media and cellular proteins were collected and subjected to specific ELISAs for icIL-1RA and sIL-1RA (FIGS. 11E, 11F, 11G, and 11H). PCR values were normalized to their respective GAPDH levels. icIL-1RA and sIL-1RA protein levels were normalized to cellular protein levels. Data are expressed as the mean±SD of three independent determinations. Experiments were repeated three times. **, p<0.01; ***. P<0.001.

GD-OF [4] = experiment: Hyaluronan (HA) production, ELISA; assay type: cell-based, human; settings: 50 μg/ml, over 96 h
Protocol: (§1) FIGS. 13A-13B are graphs showing the effect of teprotumumab on bTSH induced hyaluronan (HA) production in GD-OF (FIG. 13A) and fibrocytes (FIG. 13B). GD-OF were treated with or without teprotumumab (50 μg/ml) or human Isotype IgG (5 μg/ml) for 7-9 d and stimulated with bTSH (5 mIU/mL) for graded intervals indicated along the abscissa for 0 to 96h. Media were collected and subjected to HA ELISA. Values were normalized to respective cell layer protein levels and expressed as the mean±SD of three independent determinations. Experiments were repeated three times. FIGS. 13C-13F are graphs showing the divergent pattern of hyaluronan synthase (HAS) isoenzyme induction by bTSH in fibrocytes versus GD-OF and effects of teprotumumab (FIGS. 13C and 13D) and linsitinib (FIGS. 13E and 13F). Confluent monolayers of GD-OF and fibrocytes remained untreated or received teprotumumab (50 μg/ml) or linsitinib (1 μM) and human Isotype IgG for 7-9 d. Some cultures were treated with bTSH (5 mIU/mL) for 6h. Cellular RNA was harvested mRNA was reverse transcribed, and cDNA subjected to quantitative real-time PCR for HAS1 and HAS2. Values were normalized to their respective GAPDH levels and are expressed as the mean±SD of three independent determinations. Experiments were repeated three times. *, P<0.05; **, p<0.01; ***. P<0.001.
(§2) IL-12, IL-23, IL-10, HA and BAFF ELISAs. […]

fibrocytes [5] = experiment: Hyaluronan (HA) production, ELISA; assay type: cell-based, human; settings: 50 μg/ml
Protocol: as §1, §2

With teprotumumab the “stabilities of mRNA encoding MHC II, CD80, CD86, PD-L1” value (fibrocytes [1]) was “accelerated their decline”, the “reduction of IL-17A expression level in CD4+ T cells” value [2] was 47% and the “reduction of INFγ expression level in CD4+ T cells” value [2] was 41%. The icIL-1RA protein levels (GD-OF [3]) was “upregulated”, the sIL-1RA protein levels (GD-OF [3]) was “upregulated” and the “effects of bTSH on HA synthesis” value (GD-OF [4]) was “enhanced”. For the same substance, the “HA synthesis, bTSH with teprotumumab” value (fibrocytes [5]) was “synergism”.
